US7863247B1, “Prevention of fetal alcohol syndrome and neuronal cell death with ADNF polypeptides” (Ramot-University Authority for Applied Research and …, priority 2000, dated 2011)
No end group written: not given here.

Legend:
[1] = system: C57-B16J mice exposed to alcohol in utero; test: Fetal death (% demises at E18) in the FAS model; type: in vivo; conditions: pretreatment 30 min prior to alcohol on E8 (NAP 20 μg; NAP 20 μg+SAL 20 μg; VIP 1 μg); counted at E18
Experimental: (§1) A published well-delineated model for FAS was followed (Webster et al., Neurobehav Tox, 2:227-34 (1980)). Animals were injected (intraperitoneal) on E8 with 25% ethyl alcohol in saline (v/v) or vehicle alone at 0.030 ml/g body weight at 0900 on E8. Pretreatment with VIP and ADNF polypeptides (e.g., NAP, SAL, NAP+SAL) were given 30 min prior to alcohol. Post-treatment with NAP+SAL was given at 1 or 3 h after alcohol. Dosages of the neuropeptides were NAP (20 μg and 40 μg), SAL (20 μg), NAP (20 μg)+SAL (20 μg); VIP (1 μg). NAP+SAL without alcohol was also studied. NAP was diluted in 50 μl DMSO and diluted in filtered Dulbecco's phosphate buffered saline (DPBS). SAL was dissolved and diluted in filtered DPBS. VIP was dissolved in 20 μl glacial acetic acid and diluted in HPLC water and DPBS. […]
(§2) At E18 (embryonic gestation day 18), the number of live and demised fetuses was determined. […] The mean fetal weights were determined for each mother, and this was used for statistical analysis.
(§3) The mean litter pup and fetal brain weight was calculated, with the litter mean used for all statistical analysis. Percent demises were calculated by dividing the number of demises by the total number of fetuses (live plus demises). […]

[2] = system: C57-B16J mice exposed to alcohol in utero; test: Fetal weights at E18 in the FAS model; type: in vivo
Experimental: A published well-delineated model for FAS was followed (Webster et al., Neurobehav Tox, 2:227-34 (1980)). Animals were injected (intraperitoneal) on E8 with 25% ethyl alcohol in saline (v/v) or vehicle alone at 0.030 ml/g body weight at 0900 on E8. Pretreatment with VIP and ADNF polypeptides (e.g., NAP, SAL, NAP+SAL) were given 30 min prior to alcohol. Post-treatment with NAP+SAL was given at 1 or 3 h after alcohol. Dosages of the neuropeptides were NAP (20 μg and 40 μg), SAL (20 μg), NAP (20 μg)+SAL (20 μg); VIP (1 μg). NAP+SAL without alcohol was also studied. NAP was diluted in 50 μl DMSO and diluted in filtered Dulbecco's phosphate buffered saline (DPBS). SAL was dissolved and diluted in filtered DPBS. VIP was dissolved in 20 μl glacial acetic acid and diluted in HPLC water and DPBS. Since the animals receiving alcohol were incapacitated for approximately 6 hours following injection, food and water were withheld from all groups for the initial 6 hours, to allow accurate assessment of fetal weights.
At E18 (embryonic gestation day 18), the number of live and demised fetuses was determined. Fetal weights and fetal brain weights were obtained for each fetus in the litter. The mean fetal weights were determined for each mother, and this was used for statistical analysis.
The mean litter pup and fetal brain weight was calculated, with the litter mean used for all statistical analysis. Percent demises were calculated by dividing the number of demises by the total number of fetuses (live plus demises). Statistical analysis included ANOVA for continuous variables, Mann-Whitney U for nonparametic data, Chi square for categorical variables or Fisher's exact test where appropriate [Statview 4.5 (Abacus Concepts, Inc., Berkeley, Calif.)] with p<0.05 considered significant. Results are presented as mean±standard error unless specified.

[3] = Bioavailability of 3H-NAP to embryos (size exclusion chromatography); type: in vivo, mice
Experimental: FIG. 7a and FIG. 7b illustrate chromatographs of radiolabel (^3H) present in 1 ml fractions from a size exclusion column (Superdex Peptide HR 10/30, Pharmacia Biotech). ^3H-NAP (2 μCi/20 μg) was administered intraperitoneally to pregnant mice at E8. Intact NAP was present in fractions 15-17 denoted by shaded grey bar on graphs. FIG. 7a illustrates a pooled sample of three embryos (different litters) after a thirty minute exposure to ^3H-NAP. Based on this accumulation of labeled peptide, approximately 1 pmoles of NAP was found in the embryo, with an estimated concentration of 10 nM, well within the therapeutic range of NAP. FIG. 7b illustrates a pooled sample of three embryos (different litters) after a sixty minute exposure to ^3H-NAP.
The bioavailability of NAP to embryos was assessed by intraperitoneal administration of ^3H-NAP (2 μCi/20 μg) to pregnant mice at E8. […] Based on this accumulation of labeled peptide, approximately […] of NAP was found in the embryo, with an estimated concentration of 10 nM, well within the therapeutic range of NAP.

[4] = system: C57-B16J mice exposed to alcohol in utero; test: Fetal brain weights at E18 in the FAS model; type: in vivo; conditions: pretreatment 30 min prior to alcohol on E8 (SAL 20 μg; NAP 20 μg+SAL 20 μg)
Experimental: as §1, §2, §3

[5] = pretreatment 30 min prior to alcohol on E8 (NAP 20 μg; SAL 20 μg; NAP 20 μg+SAL 20 μg; VIP 1 μg)

Row | Substance | percentage of fetal demises [1] | fetal weights (alcohol-induced growth restriction) [2, 5] | fetal weights (alcohol-induced growth restriction) ([2]; pretreatment with a double dosage of NAP (40 μg)) | estimated concentration of NAP in the embryo ([3]; 3H-NAP 2 μCi/20 μg intraperitoneal at E8, 30 min) [nM] | radioactivity recovered in the embryo co-migrating with intact NAP ([3]; 3H-NAP 2 μCi/20 μg intraperitoneal to pregnant mice at E8, 30 min after administration) [%] | fetal brain weights (alcohol-induced microcephaly) [4]
1 | Asn-Ala-Pro-Val-Ser-Ile-Pro-Gln [NAP] | prevented the death seen with alcohol | moderately prevented the alcohol-induced growth restrictions | moderately prevented the alcohol-induced growth restriction | ~10 | 60 | 
2 | SALLRSIPA |  | did not prevent the alcohol-induced fetal weight reduction |  |  |  | moderately prevented the alcohol-induced fetal brain weight reduction
3 | vasoactive intestinal peptide (HSDAVFTDNYTRLRKQMAVKKYLNSILN; ends and bridges not checked; UniProt P01282 125-152, looked up) [VIP, neuropeptide that is a regulator of early postimplantation mouse embryonic growth, reference compound] | did not reverse the fetal death rate | improved embryonic weights; however, the effect was intermediate and not statistically significant |  |  |  | 
